Measurements as given in patent publication EP0729957A1, “PYRIDINE COMPOUND AND MEDICINAL USE THEREOF” (YOSHITOMI PHARMACEUTICAL INDUSTRIES, LTD., priority 1993, dated 1995).
Where a name gives a salt, the structure may show the parent alone. Read-outs that look alike come from different tables or passages of the source.

Columns and labels:
gastric acid secretion = test: Action on gastric acid secretion of rats subjected to gastroperfusion (histamine-induced); type: in vivo; conditions: 3 mg/kg i.v., 5 minutes before histamine hydrochloride (1 mg/kg i.v.); urethane-anesthetized Wistar rats
Experimental: Experimental Example 2: Action on gastric acid secretion of rats subjected to gastroperfusion
The experiment was done according to the method of Ghosh et al, Br. J. Pharmacol. 13, p 54 (1958). Wistar rats were fasted for 20 hours and anesthetized with urethane (1.5 g/kg, subcutaneous). A polyethylene tube for injection and discharge for gastroperfusion was attached to the rats. Gastroperfusion was performed using physiological saline (37°C) at a speed of 7 ml/min and the perfusate was recovered at 10-min intervals. Histamine hydrochloride (1 mg/kg) was intravenously administered at 1-hr intervals to induce secretion of gastric acid. A test solution containing the test compound was intravenously administered 5 minutes before the histamine hydrochloride administration. The acidity of the gastric acid was titrated up to pH 7.0 with an automatic titrator and percent suppression of gastric acid secretion by the test compound was determined.

Helicobacter pylori = test: Antibacterial activity (in vitro) against Helicobacter pylori, agar dilution MIC; type: cell-based; conditions: clinical isolates (18 strains), agar plate, 37°C, 8% CO2, 3-4 days; for MIC50: minimum concentration necessary for inhibiting growth by 50%; for MIC90: minimum concentration necessary for inhibiting growth by 90%
[1] = Helicobacter pylori, read-out: MIC50
[2] = Helicobacter pylori, read-out: MIC90

| MIC50 (Helicobacter pylori; [1]) [µg/mL] | MIC90 (Helicobacter pylori; [2]) [µg/mL] | Compound | Suppression (%) (gastric acid secretion) | other results |
| --- | --- | --- | --- | --- |
|  |  | 2-((3-methyl-4-(2-(2-methoxpolyethoxy)ethylthio)-2-pyridyl)methylsulfinyl)-1H-benzimidazole [Example 25] | 100 |  |
|  |  | 2-((3-methyl-4-(2-(2-methoxypolyethoxy)ethylthio)-2-pyridyl)methylthio)-1H-benzimidazole·hydrochloride [Example 22] |  | MIC50 (Helicobacter pylori): 0.025 µg/mL; MIC90 (Helicobacter pylori): 0.025 µg/mL |
|  |  | 2-((3-methyl-4-(2-methoxypolyethoxy)-2-pyridyl) methylsulfinyl)-1H-benzimidazole [Example 26] | 50 |  |
| 0.025 | 0.05 | COCCOCCSc1ccnc(CSc2nc3ccccc3[nH]2)c1C [Example 17, 2-((3-methyl-4-(2-(2-methoxyethoxy)ethylthio)-2-pyridyl)methylthio)-1H-benzimidazole·hydrochloride] |  |  |
| 0.012 | 0.025 | COCCOCCOCCSc1ccnc(CSc2nc3ccccc3[nH]2)c1C [Example 21, 2-((3-methyl-4-(2-(2-(2-methoxyethoxy)ethoxy)ethylthio)-2-pyridyl)methylthio)-1H-benzimidazole·hydrochloride] |  |  |
